Data as given in patent publication US6878722B2, “Substituted cycloalkyl P1′ hepatitis C virus inhibitors” (Bristol-Myers Squibb Company, priority 2002, dated 2005).

Key:
[1] = molecular target: T1, HCV NS3/4A protease complex (BMS strain, genotype 1a) (Hepatitis C virus genotype 1a, UniProt P27958, C1454S); assay: Recombinant HCV NS3/4A protease complex FRET peptide assay, BMS strain; type: biochemical; conditions: IC50 range, NS3/4A BMS Strain
T1 construct: DNA encoding the recombinant HCV NS3/4A protease complex (amino acids 1027 to 1711) for these strains; inferred from the pET21b vector and Ni-NTA purification; made in house; host or cells: Escherichia coli BL21 (DE3), pET21b
T1 sequence (P27958 1658-1714, looked up, stated change not applied): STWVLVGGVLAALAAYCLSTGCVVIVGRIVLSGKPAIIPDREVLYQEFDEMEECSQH
T1 sequence (P27958 1027-1657, looked up, stated change not applied): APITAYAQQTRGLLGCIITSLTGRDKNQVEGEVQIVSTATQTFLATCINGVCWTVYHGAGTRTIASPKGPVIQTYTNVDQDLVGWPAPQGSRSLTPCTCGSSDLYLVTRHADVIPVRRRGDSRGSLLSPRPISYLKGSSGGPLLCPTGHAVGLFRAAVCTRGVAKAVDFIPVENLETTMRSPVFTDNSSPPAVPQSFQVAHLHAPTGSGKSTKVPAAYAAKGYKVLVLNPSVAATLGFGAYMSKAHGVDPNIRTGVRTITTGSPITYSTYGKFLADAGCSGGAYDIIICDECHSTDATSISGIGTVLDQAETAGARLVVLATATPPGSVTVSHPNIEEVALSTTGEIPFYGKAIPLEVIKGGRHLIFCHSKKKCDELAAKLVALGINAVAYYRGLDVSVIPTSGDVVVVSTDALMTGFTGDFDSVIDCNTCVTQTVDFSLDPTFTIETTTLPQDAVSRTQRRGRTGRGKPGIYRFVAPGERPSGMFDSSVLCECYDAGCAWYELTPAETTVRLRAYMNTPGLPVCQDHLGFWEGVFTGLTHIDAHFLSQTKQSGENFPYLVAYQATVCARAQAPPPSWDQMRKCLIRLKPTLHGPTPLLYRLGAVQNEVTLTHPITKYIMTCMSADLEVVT
Source text: The purpose of this in vitro assay was to measure the inhibition of HCV NS3 protease complexes, derived from the BMS, H77C or J416S strains, as described below, by compounds of the present invention.
Serum from an HCV-infected patient was obtained from Dr. T. Wright, San Francisco Hospital. An engineered full-length cDNA (compliment deoxyribonucleic acid) template of the HCV genome (BMS strain) was constructed from DNA fragments obtained by reverse transcription-PCR (RT-PCR) of serum RNA (ribonucleic acid) and using primers selected on the basis of homology between other genotype 1a strains. […] The infectious clones, H77C (1a genotype) and J4L6S (1b genotype) were obtained from R. Purcell (NIH) and the sequences are published in Genbank (AAB67036, see Yanagi,M., Purcell,R. H., Emerson,S. U. and Bukh,J. Proc. Natl. Acad. Sci. U.S.A. 94(16),8738-8743 (1997); AF054247, see Yanagi,M., St Claire,M., Shapiro,M., Emerson,S. U., Purcell,R. H. and Bukh,J, Virology 244 (1), 161-172. (1998)).
The BMS, H77C and J4L6S strains were used for production of recombinant NS3/4A protease complexes. DNA encoding the recombinant HCV NS3/4A protease complex (amino acids 1027 to 1711) for these strains were manipulated as described by P. Gallinari et al. (see Gallinari P, Paolini C, Brennan D, Nardi C, Steinkuhler C, De Francesco R. Biochemistry. 38(17):5620-32, (1999)). Briefly, a three-lysine solubilizing tail was added at the 3′-end of the NS4A coding region. The cysteine in the P1 position of the NS4A-NS4B cleavage site (amino acid 1711) was changed to a glycine to avoid the proteolytic cleavage of the lysine tag. Furthermore, a cysteine to serine mutation was introduced by PCR at amino acid position 1454 to prevent the autolytic cleavage in the NS3 helicase domain. The variant DNA fragment was cloned in the pET21b bacterial expression vector (Novagen) and the NS3/4A complex was expressed in Escherichia. coli strain BL21 (DE3) (Invitrogen) following the protocol described by P. Gallinari et al. (see Gallinari P, Brennan D, Nardi C, Brunetti M, Tomei L, Steinkuhler C, De Francesco R., J. Virol. 72(8):6758-69 (1998)) with modifications. Briefly, NS3/4A expression was induced with 0.5 mM Isopropyl β-D-1-thiogalactopyranoside (IPTG) for 22 hr at 20° C. […] The cells were resuspended in lysis buffer (10 mL/g) consisting of 25 mM N-(2-Hydroxyethyl)Piperazine-N′-(2-Ethane Sulfonic acid) (HEPES), pH 7.5, 20% glycerol, 500 mM Sodium Chloride (NaCl), 0.5% Triton-X100, 1 ug/ml lysozyme, 5 mM Magnesium Chloride (MgCl2), 1 ug/ml DnaseI, 5 mM β-Mercaptoethanol (βME), Protease inhibitor—Ethylenediamine Tetraacetic acid (EDTA) free (Roche), homogenized and incubated for 20 mins at 4° C. The homogenate was sonicated and clarified by ultra-centrifugation at 235000 g for 1 hr at 4° C. Imidazole was added to the supernatant to a final concentration of 15 mM and the pH adjusted to 8.0. The crude protein extract was loaded on a Nickel-Nitrilotriacetic acid (Ni-NTA) column pre-equilibrated with buffer B (25 mM HEPES, pH 8.0, 20% glycerol, 500 mM NaCl, 0.5% Triton-X100, 15 mM imidazole, 5 mM βME). The sample was loaded at a flow rate of 1 mL/min. The column was washed with 15 column volumes of buffer C (same as buffer B except with 0.2% Triton-X100). The protein was eluted with 5 column volumes of buffer D (same as buffer C except with 200 mM Imidazole).
NS3/4A protease complex-containing fractions were pooled and loaded on a desalting column Superdex-S200 pre-equilibrated with buffer D (25 mM HEPES, pH7.5, 20% glycerol, 300 mM NaCl, 0.2% Triton-X100, 10 mM βME).

[2] = tested on: HCV replicon in Huh7 cells; assay: HCV replicon cell-based assay (FRET); conditions: Hepatitis C virus, Huh-7; HCV replicon; read-out: EC50 range
Source text: An HCV replicon whole cell system was established as described by Lohmann V, Korner F, Koch J, Herian U, Theilmann L, Bartenschlager R., Science 285(5424):110-3 (1999). This system enabled us to evaluate the effects of our HCV Protease compounds on HCV RNA replication. Briefly, using the HCV strain 1B sequence described in the Lohmann paper (Assession number: AJ238799), an HCV cDNA was generated encoding the 5′ internal ribosome entry site (IRES), the neomycin resistance gene, the EMCV (encephalomyocarditis viurs)-IRES and the HCV nonstructural proteins, NS3-NS5B, and 3′ non-translated region (NTR). In vitro transcripts of the cDNA were transfected into the human hepatoma cell line, Huh7. […] Resulting cell lines were characterized for positive and negative strand RNA production and protein production over time.
Huh7 cells, constitutively expressing the HCV replicon, were grown in Dulbecco's Modified Eagle Media (DMEM) containing 10% Fetal calf serum (FCS) and 1 mg/ml G418 (Gibco-BRL). Cells were seeded the night before (1.5×10^4 cells/well) in 96-well tissue-culture sterile plates. Compound and no compound controls were prepared in DMEM containing 4% FCS, 1:100 Penicillin/Streptomysin, 1:100 L-glutamine and 5% DMSO in the dilution plate (0.5% DMSO final concentration in the assay). Compound/DMSO mixes were added to the cells and incubated for 4 days at 37° C. After 4 days, plates were rinsed thoroughly with Phosphate-Buffered Saline (PBS) (3 times 150 μl). The cells were lysed with 25 μl of a lysis assay reagent containing the FRET peptide (RET S1, as described for the in vitro enzyme assay). The lysis assay reagent was made from 5× cell Luciferase cell culture lysis reagent(Promega #E153A) diluted to 1× with distilled water, NaCl added to 150 mM final, the FRET peptide diluted to 10 μM final from a 2 mM stock in 100% DMSO. The plate was then placed into the Cytofluor 4000 instrument which had been set to 340 nm excitation/490 emission, automatic mode for 21 cycles and the plate read in a kinetic mode. EC50 determinations were carried out as described for the IC50 determinations.

| Compound | IC50 [1] [µM] | EC50 [2] [µM] |
| --- | --- | --- |
| COc1ccc2c(O[C@@H]3C[C@@H](C(=O)NC4(C(=O)NS(=O)(=O)C5(Cc6ccccc6)CC5)CC45CC5)N(C(=O)[C@@H](NC(=O)OC(C)(C)C)C(C)(C)C)C3)cc(-c3ccccc3)nc2c1 (mixture of isomers) [Compound 201, {1-[2-[1-(1-Benzyl-cyclopropanesulfonylaminocarbonyl)-spiro[2.2]pent-1-ylcarbamoyl]-4-(7-methoxy-2-phenyl-quinolin-4-yloxy)-pyrrolidine-1-carbonyl]-2,2-dimethyl-propyl}-carbamic acid tert-butyl ester] | 0.5 to 5 | 5 to 50 |
| C=C[C@@H]1C[C@]1(NC(=O)[C@@H]1C[C@@H](Oc2cc(-c3ccccc3)nc3cc(OC)ccc23)CN1C(=O)[C@@H](NC(=O)OC(C)(C)C)C(C)(C)C)C(=O)NS(=O)(=O)C1(Cc2ccccn2)CC1 [Compound 48, (1-{4-(7-Methoxy-2-phenyl-quinolin-4-yloxy)-2-[1-(1-pyridin-2-ylmethyl-cyclopropanesulfonylaminocarbonyl)-2-vinyl-cyclopropylcarbamoyl]-pyrrolidine-1-carbonyl}-2,2-dimethyl-propyl)-carbamic acid tert-butyl ester] | < 0.05 | < 0.05 |
| C=C[C@@H]1C[C@]1(NC(=O)[C@@H]1C[C@@H](Oc2cc(-c3ccccc3)nc3cc(OC)ccc23)CN1C(=O)[C@@H](NC(=O)OC(C)(C)C)C(C)C)C(=O)NS(=O)(=O)C1(COC)CC1 [Compound 54, {1-[2-[1-(1-Methoxymethyl-cyclopropanesulfonylaminocarbonyl)-2-vinyl-cyclopropylcarbamoyl]-4-(7-methoxy-2-phenyl-quinolin-4-yloxy)-pyrrolidine-1-carbonyl]-2-methyl-propyl]-carbamic acid tert-butyl ester] | < 0.05 | < 0.05 |
| C=C[C@@H]1C[C@]1(NC(=O)C1CC(Oc2cc(-c3ccccc3)nc3cc(OC)ccc23)CN1C(=O)[C@@H](NC(=O)N(C)C(C)(C)C)C(C)(C)C)C(=O)NS(=O)(=O)C1(CC2CC2)CC1 (some centres unmarked) [Compound 120] | < 0.05 | 0.05 to 0.5 |
| CCCC1(S(=O)(=O)NC(=O)C2(NC(=O)[C@@H]3C[C@@H](Oc4cc(-c5ccccc5)nc5cc(OC)ccc45)CN3C(=O)[C@@H](NC(=O)OC(C)(C)C)C(C)(C)C)CC23CC3)CC1 (mixture of isomers) [Compound 200, (1-{4-(7-Methoxy-2-phenyl-quinolin-4-yloxy)-2-[1-(1-propyl-cyclopropane-sulfonylaminocarbonyl)-spiro[2.2]pent-1-ylcarbamoyl]-pyrrolidine-1-carbonyl}-2,2-dimethyl-propyl)-carbamic acid tert-butyl ester] | 0.05 to 0.5 | 0.5 to 5 |
| C=CC1C[C@]1(NC(=O)[C@@H]1C[C@@H](Oc2cc(-c3ccccc3)nc3cc(OC)ccc23)CN1C(=O)[C@@H](NC(=O)CC1CC1)C(C)(C)C)C(=O)NS(=O)(=O)C1(C)CC1 (stereo in doubt) [Compound 13, 1-[2-(2-Cyclopropyl-acetylamino)-3,3-dimethyl-butyryl]-4-(7-methoxy-2-phenylquinolin-4-yloxy)-pyrrolidine-2-carboxylic acid [1-(1-methylcyclopropanesulfonylaminocarbonyl)-2-vinylcyclopropyl]amide] | < 0.05 | < 0.05 |
| C=CC1C[C@]1(NC(=O)[C@@H]1C[C@@H](Oc2cc(-c3ccccc3)nc3cc(OC)ccc23)CN1C(=O)[C@@H](NC(=O)OC(C)(C)C)C(C)(C)C)C(=O)NS(=O)(=O)C1(CC2CC2)CC1 (some centres unmarked) [Compound 8, {1-[2-[1-(1-Cyclopropylmethyl-cyclopropanesulfonylaminocarbonyl)-2-vinyl-cyclopropylcarbamoyl]-4-(7-methoxy-2-phenyl-quinolin-4-yloxy)-pyrrolidine-1-carbonyl]-2,2-dime-thylpropyl}-carbamic acid tert-butyl ester] | < 0.05 | < 0.05 |
| COc1ccc2c(O[C@@H]3C[C@@H](C(=O)N[C@]4(C(=O)NS(=O)(=O)C5(Cc6ccccc6)CC5)CC4C4CC4)N(C(=O)[C@@H](NC(=O)OC(C)(C)C)C(C)(C)C)C3)cc(-c3ccccc3)nc2c1 (some centres unmarked) [Compound 204] | 0.05 to 0.5 | 0.05 to 0.5 |
| C=C[C@@H]1C[C@]1(NC(=O)[C@@H]1C[C@@H](Oc2cc(-c3ccccc3)nc3cc(OC)ccc23)CN1C(=O)[C@@H](NC(=O)OC(C)(C)C)C(C)(C)C)C(=O)NS(=O)(=O)C1(Cc2ccncc2)CC1 [Compound 47] | < 0.05 | < 0.05 |
| C=C[C@@H]1C[C@]1(NC(=O)[C@@H]1C[C@@H](Oc2cc(-c3ccccc3)nc3cc(OC)ccc23)CN1C(=O)[C@@H](NC(=O)NCC)C(C)(C)C)C(=O)NS(=O)(=O)C1(Cc2ccccc2)CC1 [Compound 61, 1-[2-(3-Ethyl-ureido)-3,3-dimethyl-butyryl]-4-(7-methoxy-2-phenyl-quinolin-4-yloxy)-pyrrolidine-2-carboxylic acid [1-(1-benzyl-cyclopropanesulfonylaminocarbonyl)-2-vinyl-cyclopropyl]-amide] | < 0.05 | 0.05 to 0.5 |
| COc1ccc2c(O[C@@H]3C[C@@H](C(=O)NC4(C(=O)NS(=O)(=O)C5(C(=O)c6ccccc6)CC5)CC4)N(C(=O)[C@@H](NC(=O)OC(C)(C)C)C(C)(C)C)C3)cc(-c3ccccc3)nc2c1 [Compound 73] | 0.5 to 5 |  |
| C=C[C@@H]1C[C@]1(NC(=O)[C@@H]1C[C@@H](Oc2cc(-c3ccccc3)nc3cc(OC)ccc23)CN1C(=O)[C@@H](NC(=O)[C@@H]1COc2ccccc2O1)C(C)(C)C)C(=O)NS(=O)(=O)C1(Cc2ccccc2)CC1 [Compound 113] | 0.5 to 5 |  |
| C=C[C@@H]1C[C@]1(NC(=O)[C@@H]1C[C@@H](Oc2cc(-c3ccccc3)nc3cc(OC)ccc23)CN1C(=O)[C@@H](NC(=O)O[C@@H]1C[C@H](C)CC[C@H]1C(C)C)C(C)(C)C)C(=O)NS(=O)(=O)C1(Cc2ccccc2)CC1 [Compound 109] | 0.5 to 5 |  |
